{"source": "patent US20150374709A1", "about": "“TETRA-SUBSTITUTED NDGA DERIVATIVES VIA ETHER BONDS AND CARBAMATE BONDS AND THEIR SYNTHESIS AND PHARMACEUTICAL USE” (ERIMOS PHARMACEUTICALS LLC, priority 2006, published 2015)", "key": {"[1]": {"system": "HeLa (cervical adenocarcinoma)", "assay": "MTS cell viability assay, HeLa", "format": "cell-based", "conditions": "read-out: HeLa IC50", "description": "(§1) Studies performed regarding cytotoxicity included the well-known MTS, Trypan Blue and MTT protocols. The MTS studies were done using the CellTiter 96®AQueous One Solution Cell Proliferation Assay (Promega Corporation, Madison, Wis. USA). Metabolically active, namely viable, cells turn MTS, a tetrazolium compound (3-(4,5-dimethylthiazol-2-yl)-5-(3-carboxymethoxyphenyl)-2-(4-sulfophenyl)-2H-tetrazolium, inner salt) into colored formazan, which is soluble in tissue culture medium. The measurement of the absorbance of the formazan is read at 490 nm. The ready to use reagent is added directly to the cells in media in 96-well plates, incubated 1-4 hours and the results are recorded by the plate reader. The IC50 is estimated by graphing the gathered data. The IC50 is the concentration of the tested material that inhibits 50% of growth or viability of the tested material compared to a control.\n(§2) Three cell lines obtained from ATCC and maintained as directed by ATCC were tested: HeLa (cervical adenocarcinoma), A549 (lung carcinoma), and COS-7 (SV40 transformed monkey kidney). Studies of these cell lines are considered to be indicative of the effect of tested substances on mammalian, including human, diseases.\n(§3) All compounds were dissolved in DMSO and DMSO is used as the placebo. The samples were first dissolved into 10 mM dilutions in DMSO and then diluted further to 5, 1, 0.5, 0.1, 0.05, and 0.01 mM solutions. These solutions were added to the media at a 1% concentration (1 μl to 100 μl media) to treat the cells with 100, 50, 10, 5, 1, 0.5, and 0.1 μM of the compound. […] Solutions were checked before use for precipitation, especially the 10 mM solutions. If there was precipitation, they were warmed 65° C. and added to warmed media.\n(§4) Wells on a 96-well plate were seeded with 1.5-8×10^4 cells in 100 μl media and incubated overnight. The outside wells of the plate were filled with 200 μl sterile, deionized (DI) water to curb media evaporation. After 24 hours, test chemicals were prepared in media at a concentration of 1% media volume. The test sample media were added, mixing with pipette before adding 100 μl per well. Media was added to the “Media Only” wells. The well plate and its contents were incubated for 24-72 hours, depending on the study conducted. On the thy of the MTS assay, the MTS reagent was removed from the refrigerator and brought to room temperature. Using the multichannel pipette, 20 μl of the MTS reagent was added to each well and incubated for one to four hours. The plate was read at 490 nm with a reference wavelength of 690 nm after one hour in the incubator thereafter until the blank wells were at about 0.2 OD. The results were then scanned into a Microsoft® Excel® template designed to perform all necessary calculations whim data are entered. The data were checked for statistical errors; data points that are within 10% of the mean of the data points for that group were included. The average of the blanks (“Media Only”) were subtracted and the data were inserted into a chart that represents growth response, treated/untreated."}, "[2]": {"system": "apoptosis of cells based on DNA fragmentation", "assay": "TiterTACS DNA fragmentation apoptosis assay", "format": "cell-based", "conditions": "TiterTACS apoptosis detection", "description": "Antiproliferative activity is determined using the TiterTACS® Apoptosis Detection Kit (R&D Systems Inc., Minneapolis, Minn. USA) relating to apoptosis of cells based on DNA fragmentation, and by the ELISA VEGF ([…]) and survivin assays.\nIn the DNA fragmentation assay, in situ detection of apoptosis is specifically achieved with TiterTACS® 96-well Apoptosis Detection kit, Catalog No. TA600 (R&D Systems, Inc.). The TiterTACS® assay provides quantification of apoptosis in cultured cells without direct counting of labeled cells using colorimetric detection. Cells are treated with the test compounds, left untreated as experimental negative controls, or treated with TACS nuclease as positive controls. TACS nuclease allows positive controls to be generated for each experimental system: a brief treatment of cells with the TACS nuclease prior to labeling generates DNA breaks in every cell, providing an appropriate positive control specific for the system under study. The TdT enzyme that catalyzes the addition of dNTPs to DNA fragments allows for colorimetric detection of at 450 nm by using a streptavidin-HRP solution followed by the TACS-Sapphire substrate. A high absorbance at 450 nm is indicative of apoptosis in the cells. Treated cells are compared to untreated cells and to nuclease-cleaved cells to assess the extent of apoptosis."}, "VEGF": {"system": "VEGF", "assay": "ELISA VEGF assay (DFO-treated cells)", "format": "cell-based, Human", "conditions": "VEGF released into media by DFO-treated cells, normalized to cell count; read-out: VEGF IC50", "description": "ELISA (Enzyme-Linked ImmunoSorbent Assay) VEGF studies were done following manufacturer's instructions using the Endogen® Human VEGF ELISA kit, Catalog No. […] (Pierce Biotechnology, Inc., Rockford, Ill. USA). Hypoxic conditions are created for the cells by treating them with desferrioxamine (DFO), which chelates iron and causes the cells to secrete VEGF into the media. The supernatant (media) was removed and frozen for testing, and the cells were counted with the Trypan Blue assay so that the results can be normalized to cell count. The VEGF is measured with a sandwich ELISA that captures the protein in media on an antibody-coated microplate, and then uses a biotinylated antibody reagent to detect the protein. Results from a standard curve enable the user to quantify the amount of protein in each sample."}, "MCP-1": {"system": "MCP-1", "assay": "MCP-1 protein production in TNF-α-treated primary human keratinocytes", "format": "cell-based", "description": "Anti-inflammatory activity was determined based on the effect of tested compounds on primary human keratinocytes (PHKs). PHKs play an important role in inflammatory processes, synthesizing a number of cytokines, adhesion molecules and growth factors. Studies were conducted to determine whether tested compounds could inhibit keratinocytes to prevent or reduce production of interferon gamma (IFN-γ), interleukin-8 (IL-8), tumor necrosis factor alpha (TNF-α), granulocyte/macrophage colony-stimulating factor (GM-CSF), intercellular adhesion molecule-1 (ICAM-1, also known as CD54) and monocyte chemotactic protein-1 (MCP-1). PHKs are first treated with TNF-α to induce a pro-inflammatory state and release of pro-inflammatory cytokines. Specific cytokines are then assayed following manufacturer's instructions using R&D Systems. Inc.'s protein assays (Quantikine ELISA kits; Catalog Nos. DCP00 for MCP-1 kit, DCM00 for GM-CSF kit, and DIF50 for IFN-γ).\nAnti-inflammatory activity of several of the compounds of the previously described working examples was determined based on the effect of tested compounds on primary human keratinocytes (PHKs) as described above and following the manufacturer's instructions for the various kits used in the studies. While these studies more typically are used mostly for anti-inflammatory investigations, they can also apply to vascular diseases, since the results in keratinocytes may be extrapolated to vascular endothelium.\nOnly MCP-1 data with PHKs is dose-dependent, so an IC50 for MCP-1 can be calculated, but not for the other cytokines."}, "[3]": {"system": "TAT-mediated transactivation of HIV transcription (HIV-1 LTR promoter)", "assay": "SEAP assay of TAT-mediated transactivation (antiviral activity)", "format": "cell-based, human immunodeficiency virus (HIV)", "conditions": "for EC50: Human immunodeficiency virus 1, COS-7, 48 h, read-out: SEAP EC50", "description": "Antiviral activity is determined using a SEAP (SEcreted Alkaline Phosphatase) assay, in which cells are co-transfected with SEAP and TAT plasmids. TAT is a transactivator, human immunodeficiency virus (HIV) gene expression and is one of the two or more necessary viral regulatory factors (TAT and REV) for HIV gene expression. TAT acts iv binding to the TAR RNA element and activating transcription from the long terminal repeat (LTR) promoter. […] Previous studies have shown that TAT mediates reduction of antibody-dependent T cell proliferation, contributing substantially to the failure of the immune response. TAT also directly stimulates Kaposi's cell growth.\nSince TAT has no apparent cellular homologs, this strong positive regulator has become an attractive target for the development of anti-AIDS drugs. In contrast to currently available HIV reverse transcriptase inhibitors (AZT, DDI) or potential protease inhibitors that prevent new rounds of infection, an inhibitor which suppresses viral gene TAT regulated expression of integrated proviral DNA will arrest the virus at an early stage (Hsu et al., Science 254:1799-1802, 1991). Efforts aimed at the elucidation of factors which control gene expression at transcriptional and post-transcriptional levels in host eukaryotes have recently made possible quantitative assessment of TAT function (Sim, Ann. N.Y. Acad. Sci. 616: 64-70, 1990). To screen for inhibitors for TAT regulated transactivation (TAT-TRS), the SEAP reporter gene is put under the control of HIV-1 LTR promoter in the plasmid pBC12/HIV/SEAP. The TAT-coded activity is supplied by a second plasmid construct pBC12/CMV/t2. Transient co-transfection of COS-7 cells with these two plasmids leads to secretion of alkaline phosphatase into the culture medium which is analyzed by a simple colorimetric assay (Berger et al., Gene 66: 1-10, 1988). […]\nIn the SEAP assay, an inhibitor should cause reduction of SEAP reporter gene expression via transactivation of the HIV-1 LTR promoter by TAT protein (TAT-TRS). […] SEAP is detected colorimetrically by the para-nitrophenyl phosphate substrate at 405 nm. […] The cells are analyzed by the MTT assay to compare cytotoxicity to SEAP inhibition. […]\nCOS-7 (green monkey kidney) cells were co-transfected using Fugene 6 reagent (Roche Applied Science, Cat. No. 11815091001, Indianapolis, Ind., USA) with two plasmids: pHIVSEAP (SEAP expression vector under the control of the HIV LTR promoter) and pCTAT (HIV TAT transcription factor expression vector under the control of a CMV (cytomegalovirus) promoter). After test compound treatment for 48 hours, samples were analyzed for […] at 405 nm after addition of the p-nitrophenyl phosphate substrate. The percentage of SEAP activity inhibition was calculated in relation to the placebo control."}, "COS-7 cells": {"system": "COS-7 cells", "assay": "MTT cytotoxicity assay in COS-7 cells (run with SEAP)", "format": "cell-based, green monkey", "conditions": "COS-7 test cells of the SEAP assay", "procedure": "The MTT assay is a colorimetric method for determining the number of viable cells. Metabolically active cells turn the MIT reagent, (3-(4,5-dimethylthiazol-2-yl)-2,5-diphenyltetrazolium bromide, into purple-colored formazan crystals that are solubilized in dimethyl sulfoxide (DMSO). The MTT reagent is added to MTT (colorless) media. The media is added to the cells and they are incubated for 4 hours. DMSO is added to the cells and mixed. The colored solutions are then read at 540 nm and corrected at 630 nm. The IC50 is estimated by graphing the gathered data.\nThe cells are analyzed by the MTT assay to compare cytotoxicity to SEAP inhibition. The goal is for the drug to inhibit SEAP without being too toxic.\nThe MTT assay measures cellular-proliferation and is used to verify that the levels of SEAP activity are not solely due to cytotoxicity. These assays was used in screening for potential drug compound leads as antiviral agents, and particularly, anti-HIV candidates."}, "A549 (lung carcinoma)": {"system": "A549 (lung carcinoma)", "assay": "MTS cell viability assay, A549", "format": "cell-based", "conditions": "Homo sapiens", "description": "as §1, §2, §3, §4"}, "[4]": {"conditions": "TNF-α-treated PHK; read-out: MCP-1 IC50"}, "[5]": {"conditions": "read-out: MCP-1 IC50; TNF-α-treated PHK"}}, "note": "Where “and” joins values, the source holds several entries; their conditions need not be identical. Equal values may be shown once. Where a name gives a salt, the structure may show the parent alone. Read-outs that look alike come from different tables or passages of the source.", "data": [{"smiles": "C[C@H](Cc1ccc(OCCCN2CCCCC2)c(OCCCN2CCCCC2)c1)[C@@H](C)Cc1ccc(OCCCN2CCCCC2)c(OCCCN2CCCCC2)c1.Cl.Cl.Cl.Cl", "note": "[Compound B, 1,4-bis{3,4-bis[3-(piperidin-1-yl)propoxy]phenyl}-2,3-dimethyl-(2R,3S)-butane tetrakis-hydrochloride salt]", "values": [{"measurement": "IC50", "setting": "[1]; MTS assay", "value": "1 to 5", "unit": "µM"}, {"measurement": "DNA fragmentation", "setting": "[2]", "value": "Negative"}, {"measurement": "IC50", "setting": "VEGF", "value": "~2 µM and 2 µM"}, {"measurement": "IC50", "setting": "MCP-1; [4]", "value": 2, "unit": "µM"}]}, {"smiles": "Cc1nc(COc2ccc(C[C@@H](C)[C@@H](C)Cc3ccc(OCc4csc(C)n4)c(OCc4csc(C)n4)c3)cc2OCc2csc(C)n2)cs1", "note": "[Compound F, 1,4-bis{3,4-bis(2-methyl-thiazol-4-yl-methoxy)phenyl}-2,3-dimethyl-(2R,3S)-butane tetrakis-hydrochloride salt]", "values": [{"measurement": "SEAP EC50", "setting": "[3]; COS-7 cells co-transfected with pHIVSEAP and pCTAT, 48 hours treatment", "value": "Variable"}, {"measurement": "COS-7 IC50", "setting": "COS-7 cells", "value": "Variable"}, {"measurement": "IC50", "setting": "A549 (lung carcinoma); A549, read-out: A549 IC50", "value": "> 100", "unit": "µM"}, {"measurement": "IC50", "setting": "[1]; Homo sapiens, HeLa", "value": "> 100", "unit": "µM"}, {"measurement": "IC50", "setting": "MCP-1; [5]", "value": "> 100", "unit": "µM"}]}, {"smiles": "C[C@H](Cc1ccc(OCCO)c(OCCO)c1)[C@@H](C)Cc1ccc(OCCO)c(OCCO)c1", "note": "[Compound I, 1,4-bis{3,4-bis(2-hydroxyethoxy)phenyl}-2,3-dimethyl-(2R,3S)-butane]", "values": [{"measurement": "EC50", "setting": "[3]", "value": "60 to 80", "unit": "µM"}, {"measurement": "IC50", "setting": "A549 (lung carcinoma); A549, read-out: A549 IC50", "value": "65 to 70", "unit": "µM"}, {"measurement": "IC50", "setting": "[1]; Homo sapiens, HeLa", "value": "20 to 30", "unit": "µM"}, {"measurement": "IC50", "setting": "MCP-1; [5]", "value": 25, "unit": "µM"}]}, {"smiles": "C[C@H](Cc1ccc(OCCOCCO)c(OCCOCCO)c1)[C@@H](C)Cc1ccc(OCCOCCO)c(OCCOCCO)c1", "note": "[Compound J, 1,4-bis{3,4-bis[2-(2-hydroxyethoxy)ethoxyl]phenyl}-2,3-dimethyl-(2R,3S)-butane]", "values": [{"measurement": "EC50", "setting": "[3]", "value": "80 to 90", "unit": "µM"}, {"measurement": "IC50", "setting": "COS-7 cells; Chlorocebus sabaeus", "value": "80 to 90", "unit": "µM"}, {"measurement": "IC50", "setting": "A549 (lung carcinoma); A549, MTS assay, read-out: A549 IC50", "value": "80 to 90", "unit": "µM"}, {"measurement": "IC50", "setting": "[1]; Homo sapiens, HeLa, MTS assay", "value": "> 100", "unit": "µM"}, {"measurement": "IC50", "setting": "MCP-1; [4]", "value": 70, "unit": "µM"}]}]}
